Assay results: paper PMC5589090 (PLoS Medicine, 2017)
Values joined by “and” are separate entries in the source; they are usually repeats but may differ in a detail not shown here. Equal entries are not always repeated. Where two headings read alike, the source gives them in different places.

Experiments:
[1] = test system: malignant tumor formation; parameters: method as in Berger MR. Proc Am Ass Cancer Res 1997;38:599; conditions: 6mg/kg of decitabine; controls 30-40%; ref Berger MR. Proc Am Ass Cancer Res 1997;38:599; cited from earlier work
[2] = cited from earlier work; for Cmax: read-out: decitabine Cmax
[3] = test system: KG1a; conditions: cited from earlier work
[4] = test system: E. Coli lac I transgene; conditions: ref 76 77; cited from earlier work
[5] = cited from earlier work
[6] = ref Investigators Brochure, cited from earlier work
[7] = Blood counts, clinical pathology (total hemoglobin, reticulocytes, platelets, ANC, ALC, WBC); type: in vivo, human; conditions: cohorts 4 and 5, while total hemoglobin increased
Source text: (§1) Blood counts, blood chemistries, total bilirubin, HbF, LDH, and D-dimer levels were standard clinical pathology tests through the CLIA-certified Clinical Pathology Laboratory at the University of Illinois at Chicago.

[8] = test system: tumor cell lines; parameters: method as in ref 83 (a number printed in a supplementary file, which may have a reference list of its own: not looked up in the article's list); conditions: of 25 940 genes analyzed; cited from earlier work
[9] = test system: 10T1/2 cells and V79 cells; parameters: method as in ref 74 (a number printed in a supplementary file, which may have a reference list of its own: not looked up in the article's list); conditions: cited from earlier work
[10] = test system: thyroid carcinoma; parameters: method as in ref 95 (a number printed in a supplementary file, which may have a reference list of its own: not looked up in the article's list); conditions: cited from earlier work
[11] = Blood chemistries and biomarkers of hemolysis, thrombophilia, inflammation (LDH, total bilirubin, D-dimer, CRP); type: in vivo, human; conditions: cohorts 4 and 5
Source text: as §1

[12] = cited from earlier work; remark: listed apart in the source
[13] = parameters: method as in Investigators Brochure; conditions: THU co-administration, mice; ref Investigators Brochure; cited from earlier work
[14] = cited from earlier work; remark: listed apart in the source
[15] = cited from earlier work; remark: listed apart in the source
[16] = test system: DNMT1; conditions: cited from earlier work
[17] = rat, in vivo; cited from earlier work
[18] = Table B1, baseline before treatment, per subject, r10 Mean ±SD
[19] = Table B1, last 20 of 36 weeks of treatment, per subject, r10 Mean ±SD

For Nc1ncn([C@H]2C[C@H](O)[C@@H](CO)O2)c(=O)n1 [decitabine, 5-aza-2’-deoxycytidine], which “rate of malignant tumor formation” value [1] is on record?
Its value is 74-94%.

What about the lethal toxicity ([2]; decitabine 1.0 mg/kg + THU 167 mg/kg 2X/week for 9 weeks, ref Investigators Brochure) of the same molecule?
The lethal toxicity was “lethal toxicity in eight females and one male”.

And the “toxicity in bone marrow, lymphoid and testicular tissue” value ([2]; decitabine 0.2 and 0.4 mg/kg + THU, ref Investigators Brochure)?
The value was “reversible toxicity”.

What about the Cmax ([2]; low dose 0.2 mg/kg + THU 167 mg/kg oral gavage 2X/week, ref Investigators Brochure) of the same molecule?
The Cmax was 1500 nM.

What about the Cmax ([2]; mid dose 0.4 mg/kg + THU 167 mg/kg oral gavage 2X/week, ref Investigators Brochure) of the same molecule?
Its Cmax is 2900 nM.

And the Cmax ([2]; mouse, in vivo)?
The Cmax was 8600 nM.

What about the NOAEL ([2]; ref Investigators Brochure) of the same molecule?
The NOAEL was “no NOAEL”.

And the “decrease of decitabine Cmax and AUC cal,0→180 on day 58 compared to day 1” value ([2]; ref Investigators Brochure)?
The value was ~ 30%.

And the DNMT1 protein expression ([3]; 0.3 µM daily for 2-3 days)?
Its DNMT1 protein expression is “profoundly decreased DNMT1 protein expression”.

What about the viability ([3]; 0.3 µM daily for 2-3 days) of the same molecule?
The viability was “did not decrease the viability”.

And the phospho-H2AX ([3]; 0.3 µM, 3 days of treatment)?
The phospho-H2AX was “an increase in phospho-H2AX was noted”.

What about the transgene mutations [4] of the same molecule?
The transgene mutations was “mutations predominantly at CpG nucleotides”.

And the fetal defects ([5]; pregnant mice, dose and gestation day related)?
Its fetal defects is “increased fetal defects”.

And the “fertility in off-spring after in utero exposure” value ([5]; primarily in males)?
The value was “decreased fertility in off-spring”.

What about the “increase of AUClast compared to oral decitabine alone” value ([6]; THU co-administration, baboons) of the same molecule?
Its value is “approximately 9 fold”.

And the “hematologic or other evidence of cytotoxicity” value ([6]; oral decitabine 5-10 mg/m^2 + oral THU 400 mg/m^2 2-3X/week up to 8 weeks)?
The value was “did not produce hematologic or other evidence of cytotoxicity”.

What about the Cmax ([6]; read-out: decitabine Cmax, oral decitabine 100 mg/m^2 + oral THU 400 mg/m^2, in 1 of 7 animals) of the same molecule?
Its Cmax is about 200 nM.

And the reticulocyte counts [7]?
The reticulocyte counts was “decreased”.

What about the “genes with increased expression” value [8] of the same molecule?
The value was 0.67%.

What about the mutagenicity [9] of the same molecule?
The mutagenicity was “either did not show mutagenicity or was weakly mutagenic”.

What about the thyroid carcinoma promotion [10] of the same molecule?
The thyroid carcinoma promotion was “promoted goitrogen induced, but not radiation induced, thyroid carcinoma”.

And the “serum LDH” value ([11]; biomarker of hemolysis)?
Its value is “improved”.

And the total bilirubin ([11]; biomarker of hemolysis)?
Its total bilirubin is “improved”.

And the CRP levels ([11]; biomarker of inflammation)?
Its CRP levels is “improved”.

And the D-dimer ([11]; biomarker of thrombophilia)?
The D-dimer was “improved”.

What about the “cumulative hematologic or non-hematologic toxicities” value ([12]; 36 weeks, seven subjects) of the same molecule?
The value was “No cumulative hematologic or non-hematologic toxicities”.

And the ANC nadir at optimal drug dose ([12]; IV 0.3 mg/kg/day 5 days/week for 2 weeks, 6-week cycles)?
Its ANC nadir at optimal drug dose is over 1500 cells/µL.

What about the “HbF (%) Pre” value [12, 18] of the same molecule?
Its value is 3.12 ± 2.75% and 0.8% and 6.8% and 1.4% and 0.6% and 2.9% and 6.2%.

And the “Total Hemoglobin Pre” value [12, 18]?
The value was 7.32 ± 0.94 g/dL and 6.2 g/dL and 8.2 g/dL and 6.0 g/dL and 7.2 g/dL and 8.0 g/dL and 7.8 g/dL.

What about the “HbF (%) Avg” value [12, 19] of the same molecule?
The value was 13.93 ± 2.35% and 12.40 ± 1.25% and 14.55 ± 1.32% and 12.75 ± 2.28% and 10.80 ± 2.05% and 16.42 ± 2.81% and 16.70 ± 2.55%.

What about the “HbF (%) Max” value [12, 19] of the same molecule?
Its value is 18.35 ± 4.46% and 14.4% and 16.3% and 17.2% and 24.6% and 23.2%.

What about the “Total Hemoglobin Avg” value [12, 19] of the same molecule?
Its value is 8.81 ± 0.42 g/dL and 9.05 ± 0.48 g/dL and 9.37 ± 0.60 g/dL and 8.34 ± 0.55 g/dL and 8.28 ± 0.52 g/dL and 8.91 ± 0.57 g/dL and 8.92 ± 0.79 g/dL.

And the “Total Hemoglobin Max” value [12, 19]?
Its value is 9.73 ± 0.53 g/dL and 9.6 g/dL and 10.3 g/dL and 9.5 g/dL and 9.0 g/dL and 10.4 g/dL.

What about the “average HbF during the last twenty weeks of treatment” value ([12]; base-line […] ± 2.75%) of the same molecule?
The value was 13.93 ± 2.35%.

What about the “average maximal HbF during the last twenty weeks of treatment” value ([12]; base-line […] ± 2.75%) of the same molecule?
The value was 18.35% ± 4.46%.

And the “maximal F-cell numbers, average over all 7 subjects” value [12]?
The value was 69 ± 10.12%.

What about the period of neutropenia [12] of the same molecule?
The period of neutropenia was 1 to 3 days.

And the average hemoglobin ([12]; last 20 weeks, base-line of 7.23 ±2.35 g/dL)?
The average hemoglobin was 8.81 ± 0.42 g/dL.

What about the “average ANC during the last 20 weeks of treatment” value ([12]; pretreatment average 4600 ± 1560, in cells/µL (unit assumed)) of the same molecule?
Its value is 4200 ± 1350.

What about the “individual maximal F-cell numbers” value ([12]; range over subjects) of the same molecule?
The value was 58 - 87%.

And the “increase of AUClast compared to oral decitabine alone” value [13]?
The value was “approximately 9 fold”.

What about the “clinical adverse events attributed to decitabine” value ([14]; 13 SCD and 5 β-thalassemia intermedia patients, SC decitabine 12-36 weeks) of the same molecule?
The value was “no clinical adverse events attributed to decitabine”.

And the “platelet count increases to” value ([14]; SCD study of decitabine)?
Its value is over 8e+11 L⁻¹.

What about the “HbF increase from baseline” value ([14]; parenteral decitabine 2–3X/week, plateau after 12 weeks, SCD patients without HbF response to hydroxyurea) of the same molecule?
Its value is over 10%.

And the “platelet count increases to” value ([14]; sickle cell study, subcutaneous decitabine)?
Its value is ~ 1000 x 10^9/L.

And the “Platelet counts, average increase” value ([15]; at the 6th week)?
Its value is 2.2 fold.

And the “time to maximum HbF” value [15]?
Its value is at most 4 weeks.

What about the “Total Hb increase” value ([15]; in 6 of 8 subjects) of the same molecule?
Its value is 1 g/dL.

What about the “transient decline in neutrophils” value ([15]; nadir at 6 weeks) of the same molecule?
The value was 3 fold.

What about the “concentrations that deplete DNMT1 without measurable DNA damage or cytotoxicity” value ([16]; in vitro) of the same molecule?
The value was 200 to 500 nM.

What about the “threshold concentration for depleting DNMT1” value ([16]; ref 15;17-22;48) of the same molecule?
Its value is ~ 0.005 µM.

And the half-life in vitro ([16]; ref 27;101)?
Its half-life in vitro is 5 to 16 h.

What about the embryo toxicity [17] of the same molecule?
The embryo toxicity was “fetal resorption and fetal defects”.
